System: SUM149PT spheroids with HUVEC/MSC, viability
Experiment: Anticancer human tumor SUM149PT cell line growth inhibition [GQUAD];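 also: spheroids exposed to drugs for seven days before readout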;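 as to viability, T/C: percent viability relative to DMSO vehicle control taken as 100%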
Conditions: for IC50: curve of first compound; for viability, T/C: stronger effect = lower value
In short: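 Tumor cells were grown as complex spheroids with HUVEC endothelial cells and mesenchymal stem cells as stroma. G-quadruplex stabilizers were combined with targeted agents over half-log dilutions from near the clinical Cmax, or from 10 microM.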

[1] = second compound 0.0316 µM, first compound 0.000999 µM
[2] = second compound 0.0316 µM, first compound 0.00316 µM
[3] = second compound 0.0316 µM, first compound 0.00999 µM
[4] = second compound 0.0316 µM, first compound 0.0316 µM
[5] = second compound 0.0316 µM, first compound 0.0999 µM
[6] = second compound 0.0316 µM, first compound 0.316 µM
[7] = second compound 0.1 µM, first compound 0.000999 µM
[8] = second compound 0.1 µM, first compound 0.00316 µM
[9] = second compound 0.1 µM, first compound 0.00999 µM
[10] = second compound 0.1 µM, first compound 0.0316 µM
[11] = second compound 0.1 µM, first compound 0.0999 µM
[12] = second compound 0.1 µM, first compound 0.316 µM
[13] = second compound 0.316 µM, first compound 0.000999 µM
[14] = second compound 0.316 µM, first compound 0.00316 µM
[15] = second compound 0.316 µM, first compound 0.00999 µM
[16] = second compound 0.316 µM, first compound 0.0316 µM
[17] = second compound 0.316 µM, first compound 0.0999 µM
[18] = second compound 0.316 µM, first compound 0.316 µM
[19] = second compound 1 µM, first compound 0.000999 µM
[20] = second compound 1 µM, first compound 0.00316 µM
[21] = second compound 1 µM, first compound 0.00999 µM
[22] = second compound 1 µM, first compound 0.0316 µM
[23] = second compound 1 µM, first compound 0.0999 µM
[24] = second compound 1 µM, first compound 0.316 µM
[25] = second compound 3.16 µM, first compound 0.000999 µM
[26] = second compound 3.16 µM, first compound 0.00316 µM
[27] = second compound 3.16 µM, first compound 0.00999 µM
[28] = second compound 3.16 µM, first compound 0.0316 µM
[29] = second compound 3.16 µM, first compound 0.0999 µM
[30] = second compound 3.16 µM, first compound 0.316 µM
[31] = second compound 10 µM, first compound 0.000999 µM
[32] = second compound 10 µM, first compound 0.00316 µM
[33] = second compound 10 µM, first compound 0.00999 µM
[34] = second compound 10 µM, first compound 0.0316 µM
[35] = second compound 10 µM, first compound 0.0999 µM
[36] = second compound 10 µM, first compound 0.316 µM

CC[C@@]1(O)C(=O)OCc2c1cc1n(c2=O)Cc2cc3c(CN(C)C)c(O)ccc3nc2-1 + Cc1[nH]c2ccc(F)cc2c1-c1nc2c3cccnc3c3ncccc3c2[nH]1
IC50 (second compound 0.0316 µM): 85.2 nM
IC50 (second compound 0.1 µM): 84.8 nM
IC50 (second compound 0.316 µM): 80.2 nM
IC50 (second compound 1 µM): 78.3 nM
IC50 (second compound 3.16 µM): 85.7 nM
IC50 (second compound 10 µM): 77.2 nM
viability, T/C [1]: 103%
viability, T/C [2]: 89.6%
viability, T/C [3]: 107%
viability, T/C [4]: 85.2%
viability, T/C [5]: 43.1%
viability, T/C [6]: 45.6%
viability, T/C [7]: 110%
viability, T/C [8]: 105%
viability, T/C [9]: 104%
viability, T/C [10]: 87.3%
viability, T/C [11]: 42.5%
viability, T/C [12]: 45.1%
viability, T/C [13]: 97.1%
viability, T/C [14]: 99.7%
viability, T/C [15]: 106%
viability, T/C [16]: 89%
viability, T/C [17]: 40.2%
viability, T/C [18]: 41.5%
viability, T/C [19]: 114%
viability, T/C [20]: 99.8%
viability, T/C [21]: 105%
viability, T/C [22]: 80.2%
viability, T/C [23]: 41.5%
viability, T/C [24]: 40.2%
viability, T/C [25]: 82.7%
viability, T/C [26]: 97.8%
viability, T/C [27]: 99%
viability, T/C [28]: 91.7%
viability, T/C [29]: 43.1%
viability, T/C [30]: 44.1%
viability, T/C [31]: 96.1%
viability, T/C [32]: 86.8%
viability, T/C [33]: 108%
viability, T/C [34]: 85.1%
viability, T/C [35]: 40.5%
viability, T/C [36]: 38.7%

CCc1c2c(nc3ccc(O)cc13)-c1cc3c(c(=O)n1C2)COC(=O)[C@]3(O)CC + CN(C)c1ccc(Nc2c3ccc(NC(=O)CCN4CCCC4)cc3nc3cc(NC(=O)CCN4CCCC4)ccc23)cc1
IC50 (second compound 0.0316 µM): 11.9 nM
IC50 (second compound 0.1 µM): 14.8 nM
IC50 (second compound 0.316 µM): 6.28 nM
IC50 (second compound 1 µM): 6.73 nM
IC50 (second compound 3.16 µM): 5.8 nM
IC50 (second compound 10 µM): 6.81 nM
viability, T/C [1]: 80%
viability, T/C [2]: 44%
viability, T/C [3]: 54.6%
viability, T/C [4]: 45.9%
viability, T/C [5]: 38.9%
viability, T/C [6]: 20.7%
viability, T/C [7]: 70.2%
viability, T/C [8]: 45.6%
viability, T/C [9]: 52.8%
viability, T/C [10]: 48.1%
viability, T/C [11]: 41.6%
viability, T/C [12]: 23.5%
viability, T/C [13]: 64.1%
viability, T/C [14]: 45.7%
viability, T/C [15]: 45.3%
viability, T/C [16]: 47.5%
viability, T/C [17]: 37.7%
viability, T/C [18]: 26%
viability, T/C [19]: 63.8%
viability, T/C [20]: 42.2%
viability, T/C [21]: 47.2%
viability, T/C [22]: 48.8%
viability, T/C [23]: 35.5%
viability, T/C [24]: 23.5%
viability, T/C [25]: 64.1%
viability, T/C [26]: 42.1%
viability, T/C [27]: 47.2%
viability, T/C [28]: 46.1%
viability, T/C [29]: 35.6%
viability, T/C [30]: 23.5%
viability, T/C [31]: 67.2%
viability, T/C [32]: 39.2%
viability, T/C [33]: 49.1%
viability, T/C [34]: 46.8%
viability, T/C [35]: 37.2%
viability, T/C [36]: 22.4%

CC1COCCN1c1cc(C2(O)CC3CCC(C2)O3)c2cnn(-c3ccn[nH]3)c2n1 (stereo unspecified) + Cc1cnc(CNC(=O)c2c(=O)c3ccc(N4CCCN(C)CC4)nc3n3c2sc2ccccc23)cn1
IC50 (second compound 0.0316 µM): < 31.6 nM
IC50 (second compound 0.1 µM): < 31.6 nM
IC50 (second compound 0.316 µM): < 31.6 nM
IC50 (second compound 1 µM): < 31.6 nM
IC50 (second compound 3.16 µM): < 31.6 nM
IC50 (second compound 10 µM): < 31.6 nM
viability, T/C [4]: 18.1%
viability, T/C (second compound 0.0316 µM, first compound 0.1 µM): 15.6%
viability, T/C [6]: 18.9%
viability, T/C (second compound 0.0316 µM, first compound 1 µM): 17.3%
viability, T/C (second compound 0.0316 µM, first compound 3.16 µM): 19.6%
viability, T/C (second compound 0.0316 µM, first compound 10 µM): 15.7%
viability, T/C [10]: 19.2%
viability, T/C (second compound 0.1 µM, first compound 0.1 µM): 18.7%
viability, T/C [12]: 19.7%
viability, T/C (second compound 0.1 µM, first compound 1 µM): 18.3%
viability, T/C (second compound 0.1 µM, first compound 3.16 µM): 17.6%
viability, T/C (second compound 0.1 µM, first compound 10 µM): 14.8%
viability, T/C [16]: 19.4%
viability, T/C (second compound 0.316 µM, first compound 0.1 µM): 21.5%
viability, T/C [18]: 22%
viability, T/C (second compound 0.316 µM, first compound 1 µM): 18.2%
viability, T/C (second compound 0.316 µM, first compound 3.16 µM): 17.9%
viability, T/C (second compound 0.316 µM, first compound 10 µM): 12.6%
viability, T/C [22]: 21.8%
viability, T/C (second compound 1 µM, first compound 0.1 µM): 23.7%
viability, T/C [24]: 21.4%
viability, T/C (second compound 1 µM, first compound 1 µM): 17.4%
viability, T/C (second compound 1 µM, first compound 3.16 µM): 15.7%
viability, T/C (second compound 1 µM, first compound 10 µM): 12.9%
viability, T/C [28]: 23%
viability, T/C (second compound 3.16 µM, first compound 0.1 µM): 22.9%
viability, T/C [30]: 21.1%
viability, T/C (second compound 3.16 µM, first compound 1 µM): 16%
viability, T/C (second compound 3.16 µM, first compound 3.16 µM): 14.7%
viability, T/C (second compound 3.16 µM, first compound 10 µM): 11%
viability, T/C [34]: 0.11%
viability, T/C (second compound 10 µM, first compound 0.1 µM): 1.32%
viability, T/C [36]: 1.05%
viability, T/C (second compound 10 µM, first compound 1 µM): 1.13%
viability, T/C (second compound 10 µM, first compound 3.16 µM): 1.57%
viability, T/C (second compound 10 µM, first compound 10 µM): 0.19%

From PubChem BioAssay AID2060484 (Molecular Pharmacology Branch, DTP, NCI, 2025)
